US20120252721A1 (priority 2011, published 2012)

Legend:
[1] = tested on: HCV genotype 1b Con1 strain subgenomic luciferase replicon (Zluc); assay: Luciferase replicon assay, genotype 1b; type: cell-based; settings: Hepatitis C virus
Protocol: (§1) The HCV luciferase replicon assay measures the ability of a test compound to inhibit HCV replication in cell culture after 3 days of treatment in a human hepatoma cell line (Huh-7) bearing an HCV replicon containing a luciferase-neomycin phosphotransferase fusion gene. The inhibition of HCV replication was measured by quantification of luciferase protein expression. Briefly, Huh-7 cells containing either the HCV genotype 1a H77 strain or genotype 1b Con1 strain subgenomic luciferase replicon (H1a-luc or Zluc, respectively) were grown in DMEM containing glucose, L-glutamine and sodium pyruvate, 10% fetal bovine serum (FBS), 100 IU/mL penicillin, 100 μg/mL streptomycin, 2 mM GlutaMAX, non-essential amino acids and 0.25 (H1a-luc) or 0.5 (Zluc) mg/mL G418. GlutaMAX was obtained from Invitrogen, Corp.; all other media reagents were obtained from Mediatech, Inc. For dose-response testing, the cells were seeded in 96-well plates at 1×10^4 (H1a-luc) or 7.5×10^3 (Zluc) cells/well in a volume of 50 μL, and incubated at 37° C./5% CO2. Three hours after plating, 50 μL of ten 5-fold serial dilutions of compound were added, and cell cultures were incubated at 37° C./5% CO2 for 72 hours. In all cases, Huh-7 cells lacking the HCV replicon served as negative control. To assess luciferase expression, the media/compound was removed from the plates and ONE-glo Luciferase assay reagent (Promega) was added to each well. The assay plates were shaken for 3 minutes at room temperature and luciferase activity for each well was measured with a 1 sec read time on the Victor^3V multilabel counter using a 700 nm cut-off filter (Perkin Elmer). EC50 values were calculated from dose response curves from the resulting best-fit equations determined by Microsoft Excel and XLfit 4.1 software.

H1a-luc or Zluc cells = assay: in vitro; type: cell-based, human; settings: Table 1B, cellular viability
Protocol: (§2) For cytotoxicity evaluation, HPC cells were treated with compounds as described above in the absence of the genotype 2a virus and cellular viability was monitored using the Cell Titer 96 AQueous One Solution Cell Proliferation Assay (Promega). Plates were then read at 490 nm in a Victor^3V 1420 multilabel counter (Perkin Elmer) and CC50 concentrations were determined using Microsoft Excel and XLfit 4.1 software.
as §2, with “H1a-luc or Zluc” for “HPC”, “above” for “above in the absence of the genotype 2a virus”

[2] = tested on: HCV genotype 1a H77 strain subgenomic luciferase replicon (H1a-luc); assay: Luciferase replicon assay, genotype 1a; type: cell-based; settings: Hepatitis C virus, read-out: EC50 1a
Protocol: (§3) Drug titration analysis was performed using the luciferase replicon assay described herein.
as §1

HCV genotype 2a = assay: Genotype 2a assay (NS5A-intergenotypic luciferase replicon / genotype 2a infectious virus assay); type: cell-based; settings: Hepatitis C virus, read-out: EC50 2a
Excerpt: (§4) The nucleotide sequences of the NS5A region of genotype 2a (GenBank Accession # AB047639), genotype 3a (GenBank Accession #D17763), and genotype 4a (GenBank Accession# DQ418788) were synthesized by an outside vendor. The NS5A region of each of these genotypes included the first 11 amino acids of the protease recognition sequence of genotype 1b, as well as the last 10 amino acids of genotype 1b. The NS5A gene cassettes were excised with site specific restriction endonucleases and ligated into a ZS11-luciferase genotype 1b backbone (backbone contains the genotype 1b NS3 protease, NS4a, NS4b, and NS5b coding regions) with similarly cut restriction enzyme sites. Thus, the newly constructed plasmid contains a genotype 2a-, 3a- or 4a-specific NS5A gene within the 1b-replicon.
(§5) These new intergenotypic plasmids were used to establish stable cell lines. RNA was generated from the NS5A intergenotypic plasmids and used in conjunction with a lipofectin reagent to transfect a cured Huh7 cell line. Transfected cells were selected for with G418. After selection has occurred the stable cell lines were propagated, tested for luciferase activity, and RT-PCR with genotype specific primers (either 1a, 2a, 3a, or 4a). Stable cell lines containing the intergenotypic replicon were then fully sequenced and analyzed for proper expression of NS3, NS5A and NS5B proteins.
as §3
The genotype 2a infectious virus assay measures the ability of a test compound to inhibit HCV replication in cell culture after 5 days of treatment at the time of HCV genotype 2a virus infection of a permissive human hepatoma cell line (HPC cells). The inhibition of HCV replication was measured by quantification of HCV core protein expression by an enzyme-linked immunosorbent assay (ELISA). Briefly, HPC cells were grown in DMEM containing glucose, L-glutamine and sodium pyruvate, 10% FBS, 100 IU/mL penicillin, 100 μg/mL streptomycin, 2 mM GlutaMAX, and non-essential amino acids. GlutaMAX was obtained from Invitrogen, Corp.; all other media reagents were obtained from Mediatech, Inc. For dose-response testing, ninety-six-well plates were seeded with HPC cells at a density of 2.5×10^3 cells/well in a volume of 50 μL, and incubated at 37° C./5% CO2. Three hours after plating, 50 μL of ten 5-fold serial dilutions of compound and 100 μL of genotype 2a virus were added, and cell cultures were incubated at 37° C./5% CO2. In all cases, mock infected HPC cells served as negative control. At 16 hours post treatment and infection, the virus inoculum was removed by aspiration. The cultures were treated at the same final concentrations of drug diluted in media and incubated for 4 additional days at 37° C./5% CO2. Subsequently, the core ELISA was performed as follows. The plates were fixed for 90 seconds with acetone/methanol (1:1, v/v), washed three times with KPL wash solution (KPL, Inc.), blocked for 1 hr at room temperature with TNE buffer containing 10% FBS and then incubated for 2 hr at 37° C. with the anti-HCV core mouse monoclonal antibody (Thermo Scientific) diluted in the same buffer. After washing three times with KPL wash solution, the cells were incubated for 1 hr at 37° C. with an anti-mouse immunoglobulin G-peroxidase conjugate in TNE/10% FBS. After washing as described above, the reaction was developed with O-phenylenediamine (Invitrogen). The reaction was stopped after 30 min with 2 NH2SO4, and absorbance was read at 490 nm in a Victor^3V 1420 multilabel counter (Perkin Elmer) and EC50 concentrations were determined using Microsoft Excel and XLfit 4.1 software.
The HCV luciferase replicon assay measures the ability of a test compound to inhibit HCV replication in cell culture after 3 days of treatment in a human hepatoma cell line (Huh-7) bearing an HCV replicon containing a luciferase-neomycin phosphotransferase fusion gene. […]

[3] = tested on: HCV genotype 4a NS5A within the 1b-replicon; assay: Luciferase replicon assay, NS5A-intergenotypic stable cell line genotype 4a; type: cell-based; settings: Hepatitis C virus, read-out: EC50 4a
Excerpt: as §4, §5, §3, §1

[4] = tested on: HCV genotype 3a NS5A within the 1b-replicon; assay: Luciferase replicon assay, NS5A-intergenotypic stable cell line genotype 3a; type: cell-based; settings: Hepatitis C virus, read-out: EC50 3a
Excerpt: as §4, §5, §3, §1

[5] = tested on: HCV Con1 subgenomic replicon (GS4.1 cells); assay: HCV replicon assay (NS5A ELISA, 72 hrs); type: cell-based; settings: Hepatitis C virus
Protocol: Huh-7 cells containing HCV Con1 subgenomic replicon (GS4.1 cells) were grown in Dulbecco's Modified Eagle Medium (DMEM) supplemented with 10% fetal bovine serum (FBS), 2 mM L-glutamine, 110 mg/L sodium pyruvate, 1× non-essential amino acids, 100 U/mL penicillin-streptomycin, and 0.5 mg/mL G418 (Invitrogen). For dose-response testing, the cells were seeded in 96-well plates at 7.5×10^3 cells/well in a volume of 50 μL, and incubated at 37° C./5% CO2. Three hours after plating, 50 μL often 2-fold serial dilutions of compounds (highest concentration, 75 μM) were added, and cell cultures were incubated at 37° C./5% CO2 in the presence of 0.5% DMSO. Alternatively, compounds were tested at a single concentration of 15 μM. In all cases, Huh-7 cells lacking the HCV replicon served as negative control. The cells were incubated in the presence of compounds for 72 hrs after which they were monitored for expression of the NS5A protein by enzyme-linked immunosorbent assay (ELISA). For this, the plates were then fixed for 1 min with acetone/methanol (1:1, v/v), washed twice with phosphate-buffered saline (PBS), 0.1% Tween 20, blocked for 1 hr at room temperature with TNE buffer containing 10% FBS and then incubated for 2 hr at 37° C. with the anti-NS5A mouse monoclonal antibody A-236 (ViroGen) diluted in the same buffer. After washing three times with PBS, 0.1% Tween 20, the cells were incubated 1 hr at 37° C. with anti-mouse immunoglobulin G-peroxidase conjugate in TNE, 10% FBS. After washing as described above, the reaction was developed with O-phenylenediamine (Zymed). The reaction was stopped after 30 min with 2 NH2SO4, and absorbance was read at 492 nm using Sunrise Tecan spectrophotometer. EC50 values were determined from the % inhibition versus concentration data using a sigmoidal non-linear regression analysis based on four parameters with Tecan Magellan software.

in vitro = type: cell-based; settings: human; GS4.1 cells, cellular viability
Protocol: For cytotoxicity evaluation, GS4.1 cells were treated with compounds as described above and cellular viability was monitored using the Cell Titer 96 AQeous One Solution Cell Proliferation Assay (Promega). CC50 values were determined from the % cytotoxicity versus concentration data with Tecan Magellan software as described above.

Compound | EC50 [1] | CC50 (H1a-luc or Zluc cells) | EC50 [2] | EC50 (HCV genotype 2a) | EC50 [3] | EC50 [4] | EC50 [5] | CC50 (in vitro)
COC(=O)N[C@H](C(=O)N1CCC[C@H]1c1ncc(-c2csc3c(-c4ccc5[nH]c([C@@H]6CCCN6C(=O)[C@@H](NC(=O)OC)C(C)C)nc5c4)csc23)[nH]1)C(C)C [Compound A173, ((S)-1-{(S)-2-[6-(6-{(S)-2-[1-((S)-2-methoxycarbonylamino-3-methyl-butyryl)-pyrrolidin-2-yl]-1H-imidazol-4-yl}-thieno[3,2-b]thiophen-3-yl)-1H-benzoimidazol-2-yl]-pyrrolidine-1-carbonyl}-2-methyl-propyl)-carbamic acid methyl ester] | < 0.1 nM | 10000 to 75000 nM | 10 to 100 nM | 1 to 10 nM | 1 to 10 nM | 1 to 10 nM | – | –
COC(=O)N[C@H](C(=O)N1CCCC1c1nc(-c2cc3sc(-c4cnc([C@@H]5CCCN5C(=O)[C@@H](NC(=O)OC)C(C)C)[nH]4)cc3s2)c[nH]1)C(C)C (stereo partly shown) [Compound A101] | < 0.1 nM | > 75000 nM | 10 to 100 nM | 1 to 10 nM | 1 to 10 nM | 1 to 10 nM | – | –
COC(=O)N[C@H](C(=O)N1CCC[C@H]1c1ncc(-c2ccc(-c3cc4sc(-c5cnc([C@@H]6CCCN6C(=O)[C@@H](NC(=O)OC)C(C)C)[nH]5)cc4s3)cc2)[nH]1)C(C)C [Compound A126, [(S)-1-((S)-2-{5-[4-(5-{2-[(S)-1-((S)-2-Methoxycarbonylamino-3-methyl-butyryl)-pyrrolidin-2-yl]-3H-imidazol-4-yl}-thieno[3,2-b]thiophen-2-yl)-phenyl]-1H-imidazol-2-yl}-pyrrolidine-1-carbonyl)-2-methyl-propyl]-carbamic acid methyl ester] | < 0.1 nM | > 75000 nM | < 0.1 nM | – | – | 1 to 10 nM | < 1 nM | > 75000 nM
COC(=O)N[C@H](C(=O)N1CCC[C@H]1c1ncc(-c2ccc(-c3csc4c(-c5ccc6[nH]c([C@@H]7CCCN7C(=O)[C@@H](NC(=O)OC)C(C)C)nc6c5)csc34)cc2)[nH]1)C(C)C [Compound A171, [(S)-1-((S)-2-{4-[4-(6-{2-[(S)-1-((S)-2-methoxycarbonylamino-3-methyl-butyryl)-pyrrolidin-2-yl]-3H-benzoimidazol-5-yl}-thieno[3,2-b]thiophen-3-yl)-phenyl]-1H-imidazol-2-yl}-pyrrolidine-1-carbonyl)-2-methyl-propyl]-carbamic acid methyl ester] | < 0.1 nM | > 75000 nM | < 0.1 nM | – | – | 1 to 10 nM | – | –
